Test results from patent US9018248B2, “Fatty acid derivatives of catechins and methods of their use” (Genesis Group Inc., priority 2010, dated 2015).

How the values were obtained:
[1] = tested on: PGE2 production; test: PGE2 production in LPS-stimulated RAW264.7 macrophages (EIA); assay type: cell-based, mouse; details: FIG. 10
Source text: The level of PGE2 released into the culture medium was quantified by a specific enzyme immunoassay (EIA) method using a ACE™ EIA kit according to the manufacturer's instructions. FIG. 10 illustrates that the production of the inflammatory mediator PGE2 was inhibited by 10a (EGCG-DPA). The EGCG ester 10a has improved lipophilicity and cellular absorption, and therefore provides synergistic effects with respect to the DPA (a competitive inhibitor against the omega-6 fatty acid arachidonic acid) for the COX enzymes) and EGCG (COX-2 inhibitor) moieties.

[2] = tested on: LPS-induced NO production; test: LPS-induced NO production in RAW 264.7 macrophage (Griess reaction); assay type: cell-based, murine; details: LPS-stimulated RAW264.7 macrophages
Method: RAW 264.7 cells were cultured in Rosewell Park Memorial Institute (RPMI) 1640 media (without phenol red) supplemented with 10% endotoxin-free, heat-inactivated fetal calf serum, 100 units/ml penicillin, and 100 μg/ml streptomycin. When the cells reached a density of 2-3×10^6 cells/ml, they were activated by incubation in a medium containing E. coli lipopolysaccharide (LPS) (100 ng/ml). Various concentrations of compounds of the disclosure in dimethyl sulphoxide (DMSO) were added together with LPS. Cells were treated with 0.05% DMSO as the vehicle control. The stimulated murine macrophage cell line RAW 264.7 cells were washed with PBS and lysed in an ice-cold RIPA buffer (Tris-HCl, pH 7.2, 25 mM; 0.1% SDS; 1% Triton X-100; 1% sodium deoxycholate; 0.15 M NaCl; 1 mM EDTA) containing 1 mM phenylmethyl sulphonyl fluoride (PMSF), 10 μg/mL aprotinin, 1 mM sodium ortho-vanadate, and 5 μg/mL leupeptin. Protein concentrations were determined using the BCA method (Pierce, Rockford, Ill.). The samples (50 μg of protein) were mixed with 5-fold of sample buffer containing 0.3 M Tris-HCl (pH 6.8), 25% 2-mercaptoethanol, 12% sodium dodecyl sulphate (SDS), 25 mM EDTA, 20% glycerol, and 0.1% bromophenol blue. The mixtures were boiled at 100° C. for 5 min, prerun on a stacking gel, and then resolved by 12% SDS-polyacrylamide minigels at a constant current of 20 mA. For western blot, proteins on the gel were electro-transferred onto a […] immobile polyvinylidene fluoride (PVDF) membrane with a transfer buffer composed of 25 mM Tris-HCl (pH 8.9), 192 mM glycine, and 20% methanol, as described by Pan et al. (2000). Membrane blocking was then carried out at room temperature for 1 h in blocking solution (20 mM Tris-HCl pH 7.4, 125 mM NaCl, 0.2% Tween 20, 1% bovine serum albumin, and 0.1% sodium azide). The membrane was incubated with the primary antibody of iNOS and COX-2 at 4° C. overnight. The membranes were subsequently probed with selected IgG antibody conjugated to horseradish peroxidase (Transduction Laboratories, Lexington, Ky.) and visualized using enhanced chemiluminescence (ECL, Amersham). The densities of the bands were quantitated using a densitometer (AlphaImager 2200 System). All the membranes were stripped and reprobed for β-actin (Sigma Chemical Co., St. Louis, Mo.) as loading control. […] The inhibition of iNOS induction by compounds of the disclosure may be due to down regulation of iNOS gene expression. […] (7b) Inhibition Against LPS-Induced NO Production in RAW 264.7 Macrophage The LPS-induced NO production by the macrophages was determined as nitrite concentration in the culture medium according to the Griess reaction. […] The absorbance of the mixture at 550 nm was measured with an ELISA plate reader (Dynatech MR-7000; Dynatech Laboratories, Chantilly, Va., USA). […]

[3] = tested on: iNOS mRNA; test: iNOS mRNA expression in LPS-stimulated RAW264.7 macrophages (RT-PCR); assay type: cell-based, mouse; details: FIG. 12
Method: (§1) Total RNA was isolated from mouse macrophage RAW264.7 cell using Trizol Reagent according to the manufacturer's instructions. Changes in the steady-state concentration of mRNA in iNOS, COX-2, and β-actin (control) were assessed by RT-PCR. Total RNA (2 μg) was converted to cDNA in a series of standard 10 μl reverse transcription reactions. DNA amplification was carried out in “Ready To Go” PCR Beads. The initial conditions were 95° C. for 5 min. Amplification 30 cycles of iNOS were 95° C. for 40 s, 65° C. for 60 s, and 72° C. for 2 min, followed by a 10 min extension at 72° C. The thermal cycle conditions of COX-2 were initiated at 95° C. for […], then 30 cycles of amplification (94° C. for 45 s, 55° C. for 60 s, and 72° C. for 2 min) were performed followed by 10 min extension at 72° C. The PCR products were separated by electrophoresis on a 1% agarose gel and visualized by ethidium bromide staining. Amplification of β-actin served as a control for sample loading and integrity. PCR was performed on the cDNA using the following sense and antisense primer: iNOS, forward primer 5′-[…]-[…]-3′ (2944-2968), reverse primer 5′-[…]-[…]-3′ (3419-3443); COX-2, forward primer 5′-[…]-[…]-3′ (1094-1117), reverse primer 5′-[…]-3′ (1931-1954); β-actin, forward primer 5′-[…]-3′, reverse primer 5′-[…]-3′. Confirmation of the correct amplicons was obtained by direct DNA sequencing of the PCR products.

[4] = tested on: iNOS; test: iNOS protein expression in LPS-stimulated RAW 264.7 macrophages (western blot); assay type: cell-based, murine; details: LPS 100 ng/ml, RAW 264.7, western blot; 20 and 40 μM for 1a-1c
Method: RAW 264.7 cells were cultured in Rosewell Park Memorial Institute (RPMI) 1640 media (without phenol red) supplemented with 10% endotoxin-free, heat-inactivated fetal calf serum, 100 units/ml penicillin, and 100 μg/ml streptomycin. When the cells reached a density of 2-3×10^6 cells/ml, they were activated by incubation in a medium containing E. coli lipopolysaccharide (LPS) (100 ng/ml). Various concentrations of compounds of the disclosure in dimethyl sulphoxide (DMSO) were added together with LPS. Cells were treated with 0.05% DMSO as the vehicle control. The stimulated murine macrophage cell line RAW 264.7 cells were washed with PBS and lysed in an ice-cold RIPA buffer (Tris-HCl, pH 7.2, 25 mM; 0.1% SDS; 1% Triton X-100; 1% sodium deoxycholate; 0.15 M NaCl; 1 mM EDTA) containing 1 mM phenylmethyl sulphonyl fluoride (PMSF), 10 μg/mL aprotinin, 1 mM sodium ortho-vanadate, and 5 μg/mL leupeptin. Protein concentrations were determined using the BCA method (Pierce, Rockford, Ill.). The samples (50 μg of protein) were mixed with 5-fold of sample buffer containing 0.3 M Tris-HCl (pH 6.8), 25% 2-mercaptoethanol, 12% sodium dodecyl sulphate (SDS), 25 mM EDTA, 20% glycerol, and 0.1% bromophenol blue. The mixtures were boiled at 100° C. for 5 min, prerun on a stacking gel, and then resolved by 12% SDS-polyacrylamide minigels at a constant current of 20 mA. For western blot, proteins on the gel were electro-transferred onto a […] immobile polyvinylidene fluoride (PVDF) membrane with a transfer buffer composed of 25 mM Tris-HCl (pH 8.9), 192 mM glycine, and 20% methanol, as described by Pan et al. (2000). […] The densities of the bands were quantitated using a densitometer (AlphaImager 2200 System). […] (7b) Inhibition Against LPS-Induced NO Production in RAW 264.7 Macrophage The LPS-induced NO production by the macrophages was determined as nitrite concentration in the culture medium according to the Griess reaction. […] The absorbance of the mixture at 550 nm was measured with an ELISA plate reader (Dynatech MR-7000; Dynatech Laboratories, Chantilly, Va., USA). […]

[5] = tested on: COX-2 mRNA; test: COX-2 mRNA expression in LPS-stimulated RAW264.7 macrophages (RT-PCR); assay type: cell-based, mouse; details: FIG. 12
Method: as §1

[6] = tested on: COX-2; test: COX-2 protein expression in LPS-stimulated RAW 264.7 macrophages (western blot); assay type: cell-based, murine; details: LPS 100 ng/ml, RAW 264.7, western blot
Method: RAW 264.7 cells were cultured in Rosewell Park Memorial Institute (RPMI) 1640 media (without phenol red) supplemented with 10% endotoxin-free, heat-inactivated fetal calf serum, 100 units/ml penicillin, and 100 μg/ml streptomycin. When the cells reached a density of 2-3×10^6 cells/ml, they were activated by incubation in a medium containing E. coli lipopolysaccharide (LPS) (100 ng/ml). Various concentrations of compounds of the disclosure in dimethyl sulphoxide (DMSO) were added together with LPS. Cells were treated with 0.05% DMSO as the vehicle control. The stimulated murine macrophage cell line RAW 264.7 cells were washed with PBS and lysed in an ice-cold RIPA buffer (Tris-HCl, pH 7.2, 25 mM; 0.1% SDS; 1% Triton X-100; 1% sodium deoxycholate; 0.15 M NaCl; 1 mM EDTA) containing 1 mM phenylmethyl sulphonyl fluoride (PMSF), 10 μg/mL aprotinin, 1 mM sodium ortho-vanadate, and 5 μg/mL leupeptin. Protein concentrations were determined using the BCA method (Pierce, Rockford, Ill.). The samples (50 μg of protein) were mixed with 5-fold of sample buffer containing 0.3 M Tris-HCl (pH 6.8), 25% 2-mercaptoethanol, 12% sodium dodecyl sulphate (SDS), 25 mM EDTA, 20% glycerol, and 0.1% bromophenol blue. The mixtures were boiled at 100° C. for 5 min, prerun on a stacking gel, and then resolved by 12% SDS-polyacrylamide minigels at a constant current of 20 mA. For western blot, proteins on the gel were electro-transferred onto a […] immobile polyvinylidene fluoride (PVDF) membrane with a transfer buffer composed of 25 mM Tris-HCl (pH 8.9), 192 mM glycine, and 20% methanol, as described by Pan et al. (2000). Membrane blocking was then carried out at room temperature for 1 h in blocking solution (20 mM Tris-HCl pH 7.4, 125 mM NaCl, 0.2% Tween 20, 1% bovine serum albumin, and 0.1% sodium azide). The membrane was incubated with the primary antibody of iNOS and COX-2 at 4° C. overnight. The membranes were subsequently probed with selected IgG antibody conjugated to horseradish peroxidase (Transduction Laboratories, Lexington, Ky.) and visualized using enhanced chemiluminescence (ECL, Amersham). The densities of the bands were quantitated using a densitometer (AlphaImager 2200 System). All the membranes were stripped and reprobed for β-actin (Sigma Chemical Co., St. Louis, Mo.) as loading control. […] The inhibition of iNOS induction by compounds of the disclosure may be due to down regulation of iNOS gene expression. EGCG and compounds of the disclosure with antioxidant activities may inhibit the ROS/RNS-mediated activation of NF-κB, the transcription factor that promotes gene expression of iNOS. […] The difference in their ability to inhibit production of iNOS and COX-2 may be due to other mechanisms involved in addition to blocking the NF-κB signalling pathway. EGCG and its derivatives may also suppress the cytokine production by breaking down the mRNA and protein of iNOS and COX-2 to varied degrees. (7b) Inhibition Against LPS-Induced NO Production in RAW 264.7 Macrophage The LPS-induced NO production by the macrophages was determined as nitrite concentration in the culture medium according to the Griess reaction. The culture medium of the control and treated cells was collected and centrifuged. An aliquot (100 μL) of the supernatant was mixed with an equal volume of Griess reagent. The absorbance of the mixture at 550 nm was measured with an ELISA plate reader (Dynatech MR-7000; Dynatech Laboratories, Chantilly, Va., USA). […]

EGCG-docosapentaenoate [Compound 10a]
Inhibition of PGE2 production [1]: inhibited
Inhibition of NO production (in words) [2]: inhibited by 10a (EGCG-DPA) more effectively than DPA
Inhibition of iNOS mRNA expression [3]: inhibited
Inhibition of iNOS protein expression [4]: inhibited
Inhibition of COX-2 mRNA expression [5]: inhibited
Inhibition of COX-2 protein expression [6]: inhibited
